This note sets out measurements from publication PMC7577350 (ACS chemical biology, 2013).

Type in all cases: cell-based
The subject of one data set is mock-infected MT-4 cells. The experiment in a line: MTT cytotoxicity assay. A general note: Formazan colour is commonly taken as a measure of viable cells.
Data set [1] relates to HIV-1 (NL4-3 strain). In words: MTT anti-HIV assay. The settings on record: read-out: EC50 (μM) MTT assay; MT-4 cells, HIV-1 NL4-3, Table 3.
Data set [2] relates to HIV-1 (NL4-3 strain). The settings on record: read-out: EC50 (μM) p24 assay, MT-4 cells.

Like-named read-outs stand apart in the source and are kept apart here. A value given as a limit tells only on which side of the number the result lay.

Consider `Cc1cn([C@H]2C[C@H](N=[N+]=[N-])[C@@H](CO)O2)c(=O)[nH]c1=O` [AZT, reference compound], for which, in the data set on mock-infected MT-4 cells, the CC50 was more than 100000 nM. The EC50 was determined as 0.07 µM in the data set on HIV-1 (NL4-3 strain) [1]; 0.02 µM in the data set with HIV-1 (NL4-3 strain) [2] (HIV-1 NL4-3, Table 3); 0.29 µM with HIV-1 (NL4-3 strain) [2] (HIV-1 NL4-3, Table 4).

The CC50 is the concentration that lowers cell viability or growth by half. In general, EC50 refers to the concentration at which the effect is half-maximal.
